Molecules are shown by their SMILES. Converted amounts (≈) assume the structure as drawn. “And” between values parts separate entries of the source, which are not always exact repeats. Equal values may be shown once. Bounds are passed on as bounds.

Data set [1] has as its system C. elegans. Kind of data set: Egg-laying assays. Format: in vivo, Caenorhabditis elegans. Particulars: gravid worms. As to the method: Age-synchronized gravid worms were transferred to solid NGM plates containing different drug concentrations (100–300 μM). Each concentration was evaluated in triplicate and DMSO was used as a control. After 1 h, the number of laid eggs per worm was counted. This experiment was independently repeated three times.

The subject of data set [2] is HEK-293 cells. The experiment in a line: Human cell toxicity, propidium iodide staining. It is filed as cell-based. As to the method: HEK-293 cells were cultured in DMEM medium (Gibco, USA) containing 10% fetal bovine serum (FBS) (Gibco, USA) and penicillin/streptomycin (Gibco, USA) at 37°C in an atmosphere containing 5% CO2. Before DII exposure, cells were dissociated using trypsin-EDTA and seeded in 96 multiwell plates at a density of 1x10^4 cells/ml. Cells were resuspended in fresh medium and different drug concentrations were subsequently added. After 8 h of incubation with 0, 200 and 600 μM of DII or 96 h of incubation with 0 and 100 μM of DII, cells were washed 3 times with PBS and propidium iodide (PI, final concentration 50 μg/ml) was added to stain dead cells. PI incubation was performed for 10 min in the dark at room temperature. DMSO (0–0.7%) and chloroquine (50–200 μM) were used as vehicle and positive controls, respectively. Images were acquired with a Nikon Eclipse TE 2000 fluorescence microscope. The number of stained cells was analyzed manually. At least 3 independent experiments were analyzed.

Data set [3] relates to C. elegans. Kind of data set: Toxicity at early developmental stages (eggs, hatching, developmental rate). It is filed as in vivo, Caenorhabditis elegans. As to the method:
Briefly, gravid worms were collected and exposed to an alkaline hypochlorite solution (0.5 M NaOH and 1% NaOCl) to destroy adult worm tissues (eggs are resistant to bleach due to their chitin eggshell). Eggs were subsequently isolated with a sterile 60% sucrose solution and seeded on 35 mm NGM plates containing DII (100, 300 and 600 μM) or DMSO as a control. Hatched animals were quantified after 48 h. The results were expressed as follows: Number of living animals x 100/ Total number of eggs seeded. This experiment was independently repeated three times.
For ovicidal assessment, isolated eggs were seeded in NGM plates containing DII (600 μM) and video-recorded for 12 h. An egg was considered as non-viable if no hatching was observed during the recorded time.
The number of animals at different developmental stages (L1-L3, L4, and adults) was counted at 24, 48 and 72 h. The results were expressed as the number of animals at a given stage x 100/ Total number of living worms at that time point. This experiment was independently repeated three times.

For data set [4], the system named is E. coli OP50. Kind of data set: OP50 growth in screening wells (qualitative). It is filed as cell-based, Escherichia coli. The settings on record: 150 μg/ml, qualitative observation. The source says:
During the screening assays, we qualitatively noticed that OP50 growth was inhibited in wells containing MI. This effect was not observed with DII. To quantify this observation, we determined minimum inhibitory concentration (MIC) and minimum bactericidal concentration (MBC) of both compounds in E. coli cultures (Fig 2A). […] Similar values were obtained when we performed these assays on S. aureus, a Gram-positive bacteria (Fig 2A). […] As we are here screening for specific anthelmintic activity, we restricted our further analysis to compounds that appear to exert nematicidal action without obvious lethal effects on other organisms. Therefore, we focused our studies only on DII, relegating the evaluation of MI as a potential anthelmintic drug.

The test system of data set [5] is C. elegans. The experiment in a line: Lethality assays, dose-dependent, wild-type L4. It is filed as in vivo, Caenorhabditis elegans. The settings on record: for LC50: Caenorhabditis elegans, L4 wild-type. As to the method:
Dose-dependent lethality was quantified by exposing 40 L4s to DII (0–1000 μM) dissolved in solid medium for 8 and 24 h at 20°C. For survival to 96 h of DII exposure the temperature used was 13°C to avoid food depletion.

The subject of data set [6] is Staphylococcus aureus ATCC 25923. The experiment in a line: Minimum inhibitory and bactericidal concentrations, microdilution. It is filed as cell-based. The settings on record: ATCC25923, 24 h at 37°C. As to the method: (§1) The strains used in this study were Escherichia coli ATCC 25922 and Staphylococcus aureus ATCC 25923, kindly provided by Dr. Ziegler (Bacillus Genetic Stock Center, The Ohio State University). Stocks were stored in Mueller Hinton Broth (MHB, Biokar Diagnostics, France) supplemented with glycerol 20% at -70°C. Before running each test, the strains were incubated for 48 h at 37°C in MHB. Finally, the bacterial strains were sub-cultured in MHB at 37°C for 24 h. The solutions of antimicrobial agents and imidazolium salts were prepared following the Clinical and Laboratory Standards Institute (CLSI) guidelines for determination of Minimum Inhibitory Concentrations by the microdilution method (CLSI 2009). […] Cultures were incubated as described above and adjusted to OD625nm ~ 0.08–0.13 by the direct colony suspension method in saline water and finally adjusted to 2–8 10^5 CFU/ml by diluting 1:150 in MHB before testing. A volume of 100 μl of each sample dilution in saline water was transferred to the microplate well. Finally, an equal volume of the inoculum was added. The MIC was the lowest concentration at which there was no visible growth when compared with controls after 24 h at 37°C. To assess the minimum bactericidal concentration (MBC), 20 μl aliquots were taken from the wells where no visible growth was observed, seeded on petri dishes and covered with MH agar (MHA) at 45°C. The compounds were considered bactericidal at the concentration at which no visible colony was observed on the plate after 24 h at 37°C. All conditions were run at least in duplicate. The results were obtained from at least 3 independent experiments.
In general terms: Broth dilution looks for growth in wells or tubes with falling amounts of substance.

For data set [7], the system named is Escherichia coli ATCC 25922. The description is as above. Particulars: 24 h at 37°C. It is filed as cell-based. As to the method:
as §1

The mark [8] stands for this setting: eggs exposed to 600 μM, 24, 48 and 72 h.

The term LC50 denotes the concentration lethal to half of the exposed cells or organisms. Higher therefore signals lower toxicity. The MBC is the smallest concentration meeting the test's criterion for killing. For orientation: MIC means the smallest concentration in the dilution series that meets the test's criterion for growth inhibition. As to `CC(C)c1cccc(C(C)C)c1-n1ccnc1` [Compound 11], the “laid eggs in 1 h, fold more than controls” value in data set [1] (100 μM) was “did not produce an increase”. The “reduction in the number of laid eggs” value in data set [1] (300 μM, 1 h) is 3.6 fold. Further, the cell viability result in data set [2] (0–600 μM, 8 h) is “do not affect viability on HEK-293 cells”; in data set [2] (up to 100 μM, 96 h), “do not affect cell viability”. In data set [3] (600 μM, within 12 hours, video recording), the eggs hatched is 100%. Moreover, the “developmental rate, unc-29 null mutants” value in data set [3] (setting [8]) is “delays the development”. Besides, the “developmental rate, wild-type” value in data set [3] (setting [8]) is listed as “delays nematode development”. Besides, in data set [3] (eggs exposed to 100, 300 and 600 μM, 48 h), the “number of viable animals relative to eggs seeded” value is recorded as “significantly reduced”. Besides, the “survivors that were adults” value in data set [3] (eggs on DII-containing plates (600 μM), 72 h) is “less than 5%”. Besides, the “OP50 growth in screening wells” value in data set [4] is on record as “not observed”. In data set [5] (24 h of exposure, micromolar concentrations), this molecule displayed a lethality of 100%. The LC50 came to 448.5 ± 1.1 µM in data set [5] (8 h of exposure); 342.3 ± 1 µM in data set [5] (24 h of exposure); 23.4 ± 1.06 µM in data set [5] (96 h of exposure, 13°C). Also, the MBC in data set [6] (read-out: MBC S. aureus) was above 256 µg/mL; in data set [7] (Escherichia coli, ATCC25922), above 256 µg/mL. The MIC is 256 µg/mL (≈ 1120 µM) in data set [6] (read-out: MIC S. aureus); 256 µg/mL and 1110 µM in data set [7] (Escherichia coli, ATCC25922). For the same molecule, the “MIC E. coli” value in data set [7] (listed as DII (11)) was found to be 256 µg/mL (≈ 1120 µM).

The record behind these values is PMC6312359, “Diisopropylphenyl-imidazole (DII): A new compound that exerts anthelmintic activity through novel molecular mechanisms” (PLoS Neglected Tropical Diseases, 2018).
